The text below walks through data of BindingDB's records for doi:10.1021/acs.jmedchem.8b01201 (Kezar Life Sciences, 2018).

SMILES strings stand for the structures.

The nature of experiment [1]: Inhibition of 20S proteosome beta 1 in human MOLT4 cells by ELISA. In general terms: An ELISA detects its analyte on a solid surface through an enzyme-linked reagent.
Experiment [2] can be described thus: Inhibition of 20S proteosome beta 2 in human MOLT4 cells by ELISA.
For experiment [3], the target named is T1, Proteasome subunit beta type-1 (Mus musculus, UniProt O09061).
T1 sequence (O09061 whole entry): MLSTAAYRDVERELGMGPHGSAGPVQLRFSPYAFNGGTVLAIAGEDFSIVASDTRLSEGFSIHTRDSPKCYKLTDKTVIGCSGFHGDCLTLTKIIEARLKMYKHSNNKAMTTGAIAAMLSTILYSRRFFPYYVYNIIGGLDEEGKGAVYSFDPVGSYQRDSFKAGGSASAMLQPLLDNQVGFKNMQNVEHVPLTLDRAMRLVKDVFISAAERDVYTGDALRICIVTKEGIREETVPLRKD
Briefly: Inhibition of 20S proteosome beta 1 in mouse A20 cells by ELISA.

Experiment [4] deals with Proteasome subunit beta type-2 (Homo sapiens, UniProt P49721). Kind of experiment: Inhibition of 20S proteosome beta 2 in human MOLT4 cells by ELISA.
Proteasome subunit beta type-2, sequence (P49721 whole entry): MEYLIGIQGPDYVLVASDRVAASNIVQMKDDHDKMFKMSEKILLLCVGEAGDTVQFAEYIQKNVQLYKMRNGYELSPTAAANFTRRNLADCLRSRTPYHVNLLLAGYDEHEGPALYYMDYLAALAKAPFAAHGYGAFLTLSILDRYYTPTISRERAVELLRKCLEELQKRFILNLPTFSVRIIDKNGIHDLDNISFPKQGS
Experiment [5] concerns the target T2, Proteasome subunit beta type-1 (Homo sapiens, UniProt P20618).
T2 sequence (P20618 whole entry): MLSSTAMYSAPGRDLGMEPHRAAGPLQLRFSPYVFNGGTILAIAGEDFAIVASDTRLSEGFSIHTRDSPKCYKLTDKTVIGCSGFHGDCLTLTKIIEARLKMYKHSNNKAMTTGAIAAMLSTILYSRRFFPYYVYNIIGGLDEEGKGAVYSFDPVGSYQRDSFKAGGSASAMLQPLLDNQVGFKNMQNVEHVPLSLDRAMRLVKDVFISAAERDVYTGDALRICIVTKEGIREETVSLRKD
Kind of experiment: Inhibition of 20S proteosome beta 1 in human MOLT4 cells by ELISA.

The nature of experiment [6]: Inhibition of 20S proteosome beta 1 in mouse A20 cells by ELISA.

With `COc1ccc(C[C@H](NC(=O)[C@@H](C)NC(=O)[C@H]2CC[C@H](O)CC2)C(=O)N[C@@H](CC2=CCCC2)C(=O)[C@@]2(C)CO2)cc1`, the IC50 in experiment [1] and in experiment [2] was > 25 µM each time.
Take `CC(C)C[C@H](NC(=O)CN1CCCCCC1)C(=O)N[C@@H](Cc1ccccc1)C(=O)N[C@@H](Cc1ccccc1)C(=O)[C@@]1(C)CO1`: the IC50 in experiment [1] and in experiment [3] was > 250 µM throughout.
Regarding `COc1ccc(C[C@H](NC(=O)[C@@H](C)NC(=O)[C@H]2CC[C@H](O)CC2)C(=O)N[C@@H](Cc2ccccc2)C(=O)[C@@]2(C)CO2)cc1`, the 50% inhibitory concentration (IC50) in experiment [4] and in experiment [5] was > 25 µM each time.
Consider `Cc1ccc(CC[C@H](NC(=O)[C@H](Cc2ccccc2)NC(=O)[C@H](CC(C)C)NC(=O)CN2CCCCCC2)C(=O)[C@@]2(C)CO2)cc1`, for which the results for the IC50 in experiment [4], in experiment [1] and in experiment [3] were 0.413 µM, > 25 µM and > 25 µM, respectively.
For `COc1ccc([C@@H](O)[C@H](NC(=O)[C@H](C)NC(=O)CN2CCOCC2)C(=O)N[C@@H](CC2=CCCC2)C(=O)[C@@]2(C)CO2)cc1` [Kzr-616], the IC50 in experiment [1] was > 10.6 µM; in experiment [6], > 25 µM.

By IC50 is commonly meant the concentration needed to halve the response being measured.
